The supplement of paper PMC10627819

What was measured:
S. aureus DSM 20231 = assay: Bliss interaction score (quartile over a dose matrix) (fitness difference); higher = more antagonism (negative = synergy)
Method in brief: (§1)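 The Bliss score is observed minus expected fitness under the product model, reported as quartiles over technical, biological and donor/recipient replicates. Fitness is the OD595 at entry into stationary phase divided by the plate's robust no-drug mean and capped at 1. Single-drug fitness was inferred from combination data.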

S. pneumoniae D39V [1] = assay: as above
Method in brief: as §1

S. aureus Newman = assay: as above
Method in brief: as §1

B. subtilis 168 = assay: as above
Method in brief: as §1

S. pneumoniae D39V [2] = assay: fitness (endpoint OD595 vs no drug) (fraction); higher = more growth
Method in brief: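 Bacterial growth was followed in 384-well plates seeded at OD595 0.01, with 30 µl per well, or 55 µl for S. pneumoniae, in TSB, LB Lennox or CY at 37 °C. OD595 was read every 30 min for 14 h, and each reading had the first reading subtracted as background. Fitness is the background-corrected optical density at entry into stationary phase divided by the robust mean of the no-drug control wells. This ratio is capped at 1.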
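For Bliss interaction score (quartile over a dose matrix) in this document: first quartile when negative (synergy) and third quartile when positive (antagonism).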

CC[C@H]1OC(=O)[C@H](C)[C@@H](O[C@H]2C[C@@](C)(OC)[C@@H](O)[C@H](C)O2)[C@H](C)[C@@H](O[C@@H]2O[C@H](C)C[C@H](N(C)C)[C@H]2O)[C@](C)(OC)C[C@@H](C)C(=O)[C@H](C)[C@@H](O)[C@]1(C)O [Clarithromycin] + CN(C)C(=O)C(CCN1CCC(O)(c2ccc(Cl)cc2)CC1)(c1ccccc1)c1ccccc1 [Loperamide]
Conditions | Bliss interaction score
B. subtilis 168 | 0.0248
S. aureus DSM 20231 | 0.18
S. aureus Newman | -0.0355
S. pneumoniae D39V [1] | 0.129

fitness, S. pneumoniae D39V [2], one replicate
Conditions | first compound 0.007812 µg/mL | first compound 0.01562 µg/mL | first compound 0.03125 µg/mL | first compound 0.0625 µg/mL | first compound 0.125 µg/mL | first compound 0.25 µg/mL
partner 20 µg/mL | ≥ 1 | ≥ 1 | 0.711 | – | – | –
partner 40 µg/mL | ≥ 1 | 0.995 | 0.768 | – | – | –
partner 68.57 µg/mL | – | – | – | 0.913 | 0.515 | 0.498
partner 80 µg/mL | 0.0268 | 0.0618 | 0.0304 | – | – | –

fitness, S. pneumoniae D39V [2]
Conditions | first compound 0.0625 µg/mL | first compound 0.07 µg/mL | first compound 0.125 µg/mL | first compound 0.14 µg/mL | first compound 0.28 µg/mL
partner 17.14 µg/mL | 0.788 | – | 0.541 | – | –
partner 20 µg/mL | – | 0.168 | – | 0.0771 | 0.0614
partner 34.28 µg/mL | 0.751 | – | 0.491 | – | –
partner 40 µg/mL | – | 0.173 | – | 0.0855 | 0.0994
partner 80 µg/mL | – | 0.0672 | – | 0.0833 | 0.047

CC[C@H]1OC(=O)[C@H](C)[C@@H](O[C@H]2C[C@@](C)(OC)[C@@H](O)[C@H](C)O2)[C@H](C)[C@@H](O[C@@H]2O[C@H](C)C[C@H](N(C)C)[C@H]2O)[C@](C)(OC)C[C@@H](C)C(=O)[C@H](C)[C@@H](O)[C@]1(C)O [Clarithromycin] + Clc1ccc(COC(Cn2ccnc2)c2ccc(Cl)cc2Cl)c(Cl)c1 [Miconazole]
Conditions | Bliss interaction score
B. subtilis 168 | 0.0897
S. aureus DSM 20231 | 0.0854
S. aureus Newman | 0.0558
S. pneumoniae D39V [1] | 0.0979

fitness, S. pneumoniae D39V [2], one replicate
Conditions | first compound 0.007812 µg/mL | first compound 0.01562 µg/mL | first compound 0.03125 µg/mL
partner 1.25 µg/mL | 0.924 | 0.848 | 0.664
partner 2.5 µg/mL | 0.9 | 0.855 | 0.66
partner 5 µg/mL | 0.869 | 0.847 | 0.556

S. pneumoniae D39V [2]
Conditions | fitness
first compound 0.0625 µg/mL, partner 1.073 µg/mL | 0.747
first compound 0.0625 µg/mL, partner 2.145 µg/mL | 0.638
first compound 0.0625 µg/mL, partner 4.29 µg/mL | 0.635
first compound 0.07 µg/mL, partner 1.25 µg/mL | 0.167
first compound 0.07 µg/mL, partner 2.5 µg/mL | 0.185
first compound 0.07 µg/mL, partner 5 µg/mL | 0.107
first compound 0.125 µg/mL, partner 4.29 µg/mL | 0.448
first compound 0.14 µg/mL, partner 1.25 µg/mL | 0.117
first compound 0.14 µg/mL, partner 2.5 µg/mL | 0.151
first compound 0.14 µg/mL, partner 5 µg/mL | 0.0925
first compound 0.25 µg/mL, partner 1.073 µg/mL | 0.0979
first compound 0.25 µg/mL, partner 2.145 µg/mL | 0.0742
first compound 0.25 µg/mL, partner 4.29 µg/mL | 0.218
first compound 0.28 µg/mL, partner 1.25 µg/mL | 0.0568
first compound 0.28 µg/mL, partner 2.5 µg/mL | 0.122
first compound 0.28 µg/mL, partner 5 µg/mL | 0.0835

C[C@@H](O)[C@H]1C(=O)N2C(C(=O)O)=C(SCCNC=N)C[C@H]12 [Imipenem] + CN[C@@H]1[C@H](O)[C@H](NC)[C@H]2O[C@@]3(O)C(=O)C[C@@H](C)O[C@H]3O[C@@H]2[C@H]1O [Spectinomycin]
Conditions | Bliss interaction score
B. subtilis 168 | -0.0558
S. aureus DSM 20231 | -0.043
S. aureus Newman | -0.0557
S. pneumoniae D39V [1] | 0.0606

fitness, S. pneumoniae D39V [2], one replicate
Conditions | first compound 0.005 µg/mL | first compound 0.01 µg/mL | first compound 0.02 µg/mL
partner 4 µg/mL | 0.988 | 0.983 | ≥ 1
partner 8 µg/mL | 0.914 | 0.886 | 0.948

fitness, S. pneumoniae D39V [2]
Conditions | first compound 0.0065 µg/mL | first compound 0.013 µg/mL | first compound 0.026 µg/mL
partner 4 µg/mL | 0.895 | 0.878 | –
partner 8 µg/mL | 0.878 | 0.864 | 0.813
partner 16 µg/mL | 0.788 | 0.828 | 0.888

COc1c(N2C[C@@H]3CCCN[C@@H]3C2)c(F)cc2c(=O)c(C(=O)O)cn(C3CC3)c12 [Moxifloxacin] + O=C1CN(/N=C/c2ccc([N+](=O)[O-])o2)C(=O)N1 [Nitrofurantoin]
Conditions | Bliss interaction score
B. subtilis 168 | 0.0132
S. aureus DSM 20231 | 0.0448
S. aureus Newman | -0.0496
S. pneumoniae D39V [1] | 0.0837

fitness, S. pneumoniae D39V [2]
Conditions | first compound 0.0037 µg/mL | first compound 0.005 µg/mL | first compound 0.0075 µg/mL | first compound 0.01 µg/mL | first compound 0.015 µg/mL | first compound 0.02 µg/mL
partner 1.285 µg/mL | 0.969 | – | 0.914 | – | 0.884 | –
partner 2 µg/mL | – | 0.972 | – | 0.961 | – | 0.893
partner 2.57 µg/mL | 0.906 | – | 0.903 | – | 0.912 | –
partner 4 µg/mL | – | 0.949 | – | 0.949 | – | 0.879
partner 8 µg/mL | – | 0.836 | – | 0.872 | – | 0.81

S. pneumoniae D39V [2], partner 5.14 µg/mL, one replicate
Conditions | fitness
first compound 0.0037 µg/mL | 0.797
first compound 0.0075 µg/mL | 0.748
first compound 0.015 µg/mL | 0.78

C[C@@H](O)[C@H]1C(=O)N2C(C(=O)O)=C(SCCNC=N)C[C@H]12 [Imipenem] + Cc1ncc([N+](=O)[O-])n1CCO [Metronidazole]
Conditions | Bliss interaction score
B. subtilis 168 | 0.0502
S. aureus DSM 20231 | 0.0365
S. aureus Newman | -0.0547
S. pneumoniae D39V [1] | 0.0768

fitness, S. pneumoniae D39V [2]
Conditions | first compound 0.005 µg/mL | first compound 0.0065 µg/mL | first compound 0.01 µg/mL | first compound 0.013 µg/mL | first compound 0.02 µg/mL | first compound 0.026 µg/mL
partner 1.073 µg/mL | 0.961 | – | 0.945 | – | 0.919 | –
partner 1.25 µg/mL | – | 0.991 | – | 0.995 | – | 0.985
partner 2.145 µg/mL | 0.872 | – | 0.737 | – | 0.886 | –
partner 2.5 µg/mL | – | 0.988 | – | ≥ 1 | – | 0.984
partner 4.29 µg/mL | 0.908 | – | 0.903 | – | 0.903 | –
partner 5 µg/mL | – | 0.99 | – | 0.969 | – | 0.961
